Entries after “also recorded” stand apart in the source; their conditions may differ.
Legend:
[1] = rat, in vivo, po
[2] = Solubility in aqueous systems; assay type: physicochemical
normal cells = assay: Cytotoxicity in normal cells; assay type: cell-based
[3] = test system: prostate and melanoma tumor; settings: in vivo; Lokeshwar et al. 1998; Seftor et al. 1998; cited from earlier work
MT1-MMP [4] = target: T1, MT1-MMP (Homo sapiens, UniProt P50281); assay: Conversion of pro-gelatinase A to active gelatinase A by recombinant MT1-MMP, SDS-PAGE; assay type: biochemical
Experimental: The proteolytic activity of MT1-MMP was assessed using gelatinase A zymography. Pure recombinant pro-MMP-2 (72 kDa gelatinase or pro-gelatinase A) and MT1-MMP were co-incubated in the presence or absence of CMT-3 (0.5-3.0 μM). After incubation, the enzyme mixture was examined by SDS-PAGE and the protein (enzyme) bands were stained with Coomassie brilliant blue.

MT1-MMP [5] = target: T1, MT1-MMP; assay: Caseinolytic activity of recombinant MT1-MMP, casein zymography; assay type: biochemical
Experimental: In FIG. 3A, the proteolytic activity of MT1-MMP and its inhibition by a tetracycline compound was assessed using casein zymography: […]

studied cell lines [6] = assay: Cytotoxicity to the cells under the conditions used; assay type: cell-based; settings: data not shown
MT1-MMP [7] = target: T1, MT1-MMP; assay: Direct digestion of [3H-methyl]-gelatin by membrane fraction of MT1-MMP-transfected COS-1 cells; assay type: biochemical; settings: 18 hr at 37° C.
Experimental: Confluent MT1-MMP-transfected COS-1 cells (2×10^7 cells) were harvested following treatment with trypsin-EDTA and washed thoroughly. Cells were suspended in 25 mM sucrose, 5 mM MgCl2 in Tris base, pH 7.4, and then subjected to nitrogen (N2) cavitation at 1000 p.s.i. for 30 min at 4° C. Whole cells and nuclei were removed by centrifugation at 770×g for 10 min, and the postnuclear supernatant was centrifuged at 6,000×g for 15 min to remove heavy organelles. The supernatant was centrifuged at 100,000×g for 60 min, and the cell membrane fraction, comprising plasma membranes, Golgi, and ribosomes, was recovered in the pellet. The 100,000×g supernatant was designated as cytosol.
Radiolabeled (^3H) collagen type I was denatured, to unravel the triple helix to produce [^3H-methyl]-gelatin. When separated by SDS-PAGE, and examined by autoradiography, the denatured collagen yields three bands: α(˜100 kDa), β(˜200 kDa), and γ(˜300 kDa), corresponding to the various components of the collagen in the sample. The tritiated gelatin substrate was incubated with a membrane fraction obtained by MT1-MMP-transfected COS-1 cells as described above. The gelatinolytic activity was calculated as % lysis of the α, β, and γ intact gelatin components assessed by laser densitometer scanning of the fluorogram.

cell surface integrins = assay: Blocking of cell surface integrins; assay type: cell-based; settings: data not shown
MT1-MMP [8] = target: T1, MT1-MMP; assay: Activation of pro-gelatinase A by MT1-MMP membrane fraction, gelatin zymography; assay type: biochemical; settings: 10, 20, and 50 μM; 18 h at 37° C.
Experimental: Recombinant pro-gelatinase A (72 kDa type IV gelatinase) can be activated to from 62 kDa active gelatinase by MT-MMP-containing plasma membrane fractions. To examine the ability of a tetracycline compound to inhibit this gelatinase activating property of MT-MMP, membrane fractions obtained according to Example 1B were incubated with recombinant human pro-gelatinase A for 18 h at 37° C. with or without CMT-3, and examined by zymography to evaluate enzyme activation.
Specifically, pro-MMP-2 was obtained from the culture-conditioned medium from MMP-2-transfected COS-1 cells.
Conditioned media were collected from the cultures that had been treated with CMT-3 for 2 days. Media were then incubated with SDS-gel electrophoresis sample buffer for 30 min at room temperature, and then analyzed by gel electrophoresis on SDS-polyacrylamide gel (10%) containing gelatin (1 mg/mL; Novex, Inc.). Following electrophoresis, the gels were washed twice with 0.25% TRITON® X-100 for 30 min each (to renature the gelatinase), and incubated for 18-24 hr at 37° C. in a Tris-HCl buffer, pH 7.4 (see, e.g., Lokeshwar 1993). After incubation, the gels were briefly rinsed in distilled water and stained with 0.25% Coomassie brilliant blue R250. The location of gelatinase activity in the gels is visible as a colorless area on an otherwise uniform blue background, indicative of digested gelatin.

studied cell lines [9] = assay: Initial attachment and spreading of cells on extracellular matrix or Matrigel substrate; assay type: cell-based; settings: data not shown
[10] = test system: HT-1080 fibrosarcoma cells; assay: Matrigel invasion of HT-1080 fibrosarcoma cells; assay type: cell-based, human; settings: for concentration of maximal inhibition of invasion: 24 hr, 10% serum
Experimental: HT-1080 cells were allowed to invade through Matrigel (Collaborative Research, Bedford, Mass.) for 24 hr in medium containing 10% serum. CMT-3 or CMT-8 were added to the medium to assess their ability to inhibit invasivity of the cells. CMT-3 was tested at final concentrations of 1 μM or 10 μM; CMT-8 was tested twice at a final concentration of 50 μM. The invading cells were counted, and the relative numbers of cells were expressed as means of triplicate measurements.

MG-63 osteosarcoma cells = assay: MMP-2 expression and MT1-MMP-dependent activation of pro-MMP-2, concanavalin A-treated MG-63 cells, zymography; assay type: cell-based, human
Experimental: MG-63 cells, an osteosarcoma cell line, were grown in culture and treated with 40 μg/mL concanavalin A to induce MT1-MMP-dependent activation of pro-MMP-2. Culture-conditioned medium was collected, as a source of pro-MMP-2, and was incubated in the presence of the membrane fraction of COS-1 cells transfected to express MT1-MMP.

Serum half-life = settings: in vivo
[11] = test system: HT-1080 fibrosarcoma cells; assay: Transwell migration of HT-1080 fibrosarcoma cells; assay type: cell-based, human; settings: 18 hr, 10% serum; for inhibition of HT-1080 fibrosarcoma cell migration: 0.5 μM
Description: HT-1080 cells were allowed to migrate in the presence of medium containing 10% serum for 18 hr in Transwell chambers (Costar, Cambridge, Mass.). […] The data are expressed as means of triplicate measurements.

**Q.** For CN(C)C1C(=O)C(C#N)=C(O)C2(O)C(=O)C3=C(O)c4c(O)cccc4C(C)(O)C3CC12 (stereo not shown) [CMT-2, tetracyclinonitrile], which blood levels [1] is on record?
**A.** Its blood levels is “no detectable blood levels”.

**Q.** What about the “solubility in aqueous systems” value [2] of the same compound?
**A.** The value was “low solubility”.

**Q.** With NC(=O)C1=C(O)C[C@@H]2C[C@@H]3Cc4cccc(O)c4C(=O)C3=C(O)[C@]2(O)C1=O [CMT-3, 6-demethyl-6-deoxy-4-de(dimethylamino)tetracycline] as the compound, how does the “cytotoxicity in normal cells” value (normal cells) read?
**A.** The value was “little or substantially no cytotoxicity”.

**Q.** And the “tumor growth and metastasis” value [3]?
**A.** The value was “suppress prostate and melanoma tumor growth and metastasis”.

**Q.** And the “inhibition of the formation of the smaller molecular weight species of gelatinase A” value (MT1-MMP [4]; 3.0 μM)?
**A.** Its value is “essentially completely inhibits”.

**Q.** What about the “inhibition of the conversion of pro-gelatinase A to active gelatinase A” value (MT1-MMP [4]; 0.5, 1.0, 1.5 and 3.0 μM, 50 ng recombinant MT1-MMP) of the same compound?
**A.** The value was “progressive inhibition”.

**Q.** And the IC50 (MT1-MMP [5])?
**A.** Its IC50 is 1 to 3 µM.

**Q.** And the “inhibition of caseinolytic activity” value (MT1-MMP [5]; 0.5, 1.5, and 3.0 μM, 50 ng MT1-MMP, β-casein 52 μM)?
**A.** Its value is “progressive inhibition of caseinolytic activity by increasing”.

**Q.** And the “cytotoxicity to the cells” value (studied cell lines [6])?
**A.** The value was “not cytotoxic”.

**Q.** And the “inhibition of gelatinolytic activity” value (MT1-MMP [7]; 5 μM)?
**A.** Its value is 16.3%.

**Q.** What about the “inhibition of gelatinolytic activity” value (MT1-MMP [7]; 10 μM) of the same compound?
**A.** Its value is 35%.

**Q.** And the “inhibition of gelatinolytic activity” value (MT1-MMP [7]; 20 μM)?
**A.** Its value is 32%.

**Q.** What about the “blocking of cell surface integrins” value (cell surface integrins) of the same compound?
**A.** Its value is “did not block”.

**Q.** And the “inhibition of MT1-MMP-induced activation of pro-gelatinase A” value (MT1-MMP [8])?
**A.** Its value is “inhibited”.

**Q.** And the “initial attachment and spreading of studied cell lines” value (studied cell lines [9])?
**A.** The value was “did not prevent”.

**Q.** And the “prevention of invasion in comparison to CMT-8” value [10]?
**A.** Its value is “slightly more effective”.

**Q.** What about the “concentration of maximal inhibition of invasion” value [10] of the same compound?
**A.** Its value is 50 µM.

**Q.** And the “gelatin-degrading activity of incubated medium” value (MG-63 osteosarcoma cells; 0.5 μM to 3.5 μM)?
**A.** Its value is “inhibited”.

**Q.** And the “percent of activated MMP-2 in the total expressed MMP-2” value (MG-63 osteosarcoma cells; 0.5 μM to 3.5 μM)?
**A.** Its value is “decreased in a dose-dependent fashion”.

**Q.** What about the “active MMP-2” value (MG-63 osteosarcoma cells; 3.0 μM and 3.5 μM) of the same compound?
**A.** Its value is “no active MMP-2 was detected”.

**Q.** What about the serum half-life (Serum half-life) of the same compound?
**A.** The serum half-life was “approximately 28 hr”.

**Q.** And the “inhibition of HT-1080 fibrosarcoma cell migration” value [11]?
**A.** Its value is “clear inhibition; also recorded: Effective inhibition”.

**Q.** And the “concentration of maximal inhibition of migration” value [11]?
**A.** Its value is 50 µM.

**Q.** What does the source list for C[C@H]1c2cccc(O)c2C(O)=C2C(=O)[C@]3(O)C(O)=C(C(N)=O)C(=O)C[C@@H]3[C@@H](O)[C@@H]21 [CMT-8, 6-deoxy-5α-hydroxy-4-de(dimethylamino)tetracycline]?
**A.** cytotoxicity to the cells (studied cell lines [6]): not cytotoxic; blocking of cell surface integrins (cell surface integrins): did not block; initial attachment and spreading of studied cell lines (studied cell lines [9]): did not prevent; concentration of maximal inhibition of invasion [10]: 50 µM; inhibition of HT-1080 fibrosarcoma cell migration [11]: clear inhibition; also recorded: Effective inhibition; concentration of maximal inhibition of migration [11]: 50 µM

**Q.** For O=C(O)CN(CCN(CC(=O)O)CC(=O)O)CC(=O)O [EDTA, reference compound], which “inhibition of caseinolytic activity” value (MT1-MMP [5]; 2 mM) is on record?
**A.** The value was “did inhibit”.

**Q.** With O=S(=O)(F)Cc1ccccc1 [PMSF, reference compound] as the compound, how does the “inhibition of caseinolytic activity” value (MT1-MMP [5]; 0.5 mM) read?
**A.** Its value is “did not inhibit”.
